Experiment [1] relates to 15N-16U24G-riboSAM (RNA, riboswitch) GGGAAGAAAUAACAAUCAACGACGUAUCAUUGUGCCUCGCUUUCCGCGGGGCGAUAAGUCCUGAAGAAAGGGAUGAUAUGACAUAAGAACAUCGG
In words: 1H15N-HSQC NMR. The following applies: 25 mM K2HPO4, 50 mM KCl, 2 mM MgCl2; pH 6.5, 25 or 37 °C; 0.5 mM RNA, 0.5 mM SAM.

Experiment [2] has as its system riboSAM (full-length SAM-VI riboswitch, 95 nt) (RNA, riboswitch) GGGAAGAAAUAACAAUCAACGACGUAUCAUUGUGCCUCGCUUUCCGCGGGGCGAUAAGUCCUGAAGAAAGGGAUGAUAUGACAUAAGAACAUCGG …. The experiment is described as follows: ITC. The following applies: 100 mM KCl, 10 mM MgCl2; 40 mM HEPES, pH 7.5, room temperature; 45 μM RNA.
Experiment [3] has as its system 2AP-mutant (riboSAM mutant, P0 helix disrupted) (RNA, riboswitch, 2-aminopurine at 59 (replaces U59)) GGGAAGAAAUAUGCCUCAACGACGUAUCAUUGUGCCUCGCUUUCCGCGGGGCGAUAAGACCUGAAGAAAGGGAUGAUAUGACAUAAGAACAUCGG
The experiment is described as follows: steady-state 2AP fluorescence titration. The following applies: 100 mM KCl, 2 mM MgCl2; 10 mM HEPES, pH 7.5, room temperature; 0.5 μM RNA; apparent.

Experiment [4] deals with 2AP-riboSAM (RNA, riboswitch, 2-aminopurine at 59 (replaces U59)) GGGAAGAAAUAACAAUCAACGACGUAUCAUUGUGCCUCGCUUUCCGCGGGGCGAUAAGACCUGAAGAAAGGGAUGAUAUGACAUAAGAACAUCGG
The experiment is described as follows: steady-state 2AP fluorescence titration. The following applies: 100 mM KCl, 2 mM MgCl2; 10 mM HEPES, pH 7.5, room temperature; 0.5 μM RNA; apparent.

The test system is the same in experiment [5]. In words: stopped-flow 2AP fluorescence. Conditions: 100 mM KCl, 2 mM MgCl2; 10 mM HEPES, pH 7.5, room temperature; 0.5 μM RNA.
Experiment [6] relates to 15N-25U32G-riboSAM hybridized with 19 nt-DNA (DNA:RNA, riboswitch) GGGAAGAAAUAACAAUCAACGACGUAUCAUUGUGCCUCGCUUUCCGCGGGGCGAUAAGUCCUGAAGAAAGGGAUGAUAUGACAUAAGAACAUCGG/CCGATGTTCTTATGTCATA
In words: 1H15N-HSQC NMR. The following applies: 25 mM K2HPO4, 50 mM KCl, 2 mM MgCl2; pH 6.5; 3' end blocked by 19-nt DNA.

Experiment [7] concerns 2AP-mutant (riboSAM mutant, P0 helix disrupted) (RNA, riboswitch, 2-aminopurine at 59 (replaces U59)) GGGAAGAAAUAUGCCUCAACGACGUAUCAUUGUGCCUCGCUUUCCGCGGGGCGAUAAGACCUGAAGAAAGGGAUGAUAUGACAUAAGAACAUCGG
In words: stopped-flow 2AP fluorescence. Conditions: 100 mM KCl, 2 mM MgCl2; 10 mM HEPES, pH 7.5, room temperature; 0.5 μM RNA.

Experiment [8] has as its system 15N-16U24G-riboSAM hybridized with 21 nt-DNA (DNA:RNA, riboswitch) GGGAAGAAAUAACAAUCAACGACGUAUCAUUGUGCCUCGCUUUCCGCGGGGCGAUAAGUCCUGAAGAAAGGGAUGAUAUGACAUAAGAACAUCGG/CCGATGTTCTTATGTCATATC
The experiment is described as follows: 1H15N-HSQC NMR. The following applies: 25 mM K2HPO4, 50 mM KCl, 2 mM MgCl2; pH 6.5; 0.5 mM SAM, 0.5 mM RNA; 3' end blocked by 21-nt DNA.

Turning to `C[S+](CC[C@H](N)C(=O)O)C[C@H]1O[C@@H](n2cnc3c(N)ncnc32)[C@H](O)[C@@H]1O` (some centres unmarked), the binding result in experiment [1] was “yes”; in experiment [6], “yes”; in experiment [8], “no”. For the same compound, the Kd in experiment [2] was 1.03 ± 0.23 µM; in experiment [3] it was ~ 11.861 ± 0.341 μM; in experiment [4] it was 9.650 ± 0.065 µM. The Kon in experiment [5] amounted to 5690 ± 83 M⁻¹ s⁻¹; in experiment [7], 4480 ± 51 M⁻¹ s⁻¹.

The record behind these values is publication PMC10122661 (2023).
